Species: Rattus norvegicus
Test: DrugMatrix - Regimen: Daily Repeat
Type: toxicity, organism-based, Sprague-Dawley
Design: regimen Daily Repeat, gender Male, age 6-8 weeks
Conditions: in vivo, iv, vehicle 100 % SALINE; for ABSOLUTE BASOPHIL / ABSOLUTE EOSINOPHIL / ABSOLUTE LYMPHOCYTE / ABSOLUTE MONOCYTE / ABSOLUTE SEGMENTED NEUTROPHIL / BASOPHIL / EOSINOPHIL / ERYTHROCYTE COUNT / HEMATOCRIT / HEMOGLOBIN / LEUKOCYTE COUNT / LYMPHOCYTE / MEAN CORPUSCULAR HEMOGLOBIN / MEAN CORPUSCULAR HEMOGLOBIN CONCENTRATION / MEAN CORPUSCULAR VOLUME / MONOCYTE / NEUTROPHIL / NUCLEATED RED BLOOD CELLS / PLATELET COUNT: tissue Blood; for ALANINE AMINOTRANSFERASE / ALBUMIN / ALKALINE PHOSPHATASE / ASPARTATE AMINOTRANSFERASE / BLOOD UREA NITROGEN / CARBON DIOXIDE / CHLORIDE / CHOLESTEROL / CREATINE PHOSPHOKINASE / CREATININE / GLUCOSE / LACTATE DEHYDROGENASE / LIPASE / PHOSPHORUS / POTASSIUM / SODIUM / TOTAL BILIRUBIN / TOTAL PROTEIN / URIC ACID: tissue Plasma
[1] = 12 mg/kg, 120 h, dose level High, time 5 day
[2] = […], 72 h, dose 1.2 mg/Kg, dose level Low, time 3 day
[3] = […], 120 h, dose 1.2 mg/Kg, dose level Low, time 5 day

SMILES: Cc1c(N)nc([C@H](CC(N)=O)NC[C@H](N)C(N)=O)nc1C(=O)N[C@H](C(=O)N[C@H](C)[C@@H](O)[C@H](C)C(=O)N[C@H](C(=O)NCCc1nc(-c2nc(C(=O)NCCC[S+](C)C)cs2)cs1)[C@@H](C)O)[C@@H](O[C@@H]1O[C@@H](CO)[C@@H](O)[C@H](O)[C@@H]1O[C@H]1O[C@H](CO)[C@@H](O)[C@H](OC(N)=O)[C@@H]1O)c1c[nH]cn1.[Br-] [BLEOMYCIN A2]
- ABSOLUTE BASOPHIL [1]: 0 CELLS/uL
- ABSOLUTE EOSINOPHIL [1]: 50 CELLS/uL
- ABSOLUTE LYMPHOCYTE [1]: 10142.67 CELLS/uL
- ABSOLUTE MONOCYTE [1]: 392.67 CELLS/uL
- ABSOLUTE SEGMENTED NEUTROPHIL [1]: 1914.67 CELLS/uL
- BASOPHIL [1]: 0%
- EOSINOPHIL [1]: 0.33%
- ERYTHROCYTE COUNT [1]: 6.36 x10E6/uL
- HEMATOCRIT [1]: 38.97%
- HEMOGLOBIN [1]: 15.17 G/DL
- LEUKOCYTE COUNT [1]: 12.5 x10E3/uL
- LYMPHOCYTE [1]: 80%
- MEAN CORPUSCULAR HEMOGLOBIN [1]: 23.87 pg
- MEAN CORPUSCULAR HEMOGLOBIN CONCENTRATION [1]: 38.93 G/DL
- MEAN CORPUSCULAR VOLUME [1]: 61.27 fL
- MONOCYTE [1]: 3.33%
- NEUTROPHIL [1]: 16.33%
- NUCLEATED RED BLOOD CELLS [1]: 0.33 /100WBC
- PLATELET COUNT [1]: 1342 x10E3/uL
- ALANINE AMINOTRANSFERASE [1]: 41.67 u/L
- ALBUMIN [1]: 3.83 G/DL
- ALKALINE PHOSPHATASE [1]: 202.67 u/L
- ASPARTATE AMINOTRANSFERASE [1]: 100.67 u/L
- BLOOD UREA NITROGEN [1]: 16.67 mg/dL
- CARBON DIOXIDE [1]: 29 mmol/L
- CHLORIDE [1]: 101 MEQ/L
- CHOLESTEROL [1]: 54.33 mg/dL
- CREATINE PHOSPHOKINASE [1]: 1017.67 u/L
- CREATININE [1]: 0.13 mg/dL
- GLUCOSE [1]: 145.67 mg/dL
- LACTATE DEHYDROGENASE [1]: 563.33 u/L
- LIPASE [1]: 10 u/L
- PHOSPHORUS [1]: 10.83 mg/dL
- POTASSIUM [1]: 6.11 MEQ/L
- SODIUM [1]: 142.27 MEQ/L
- TOTAL BILIRUBIN [1]: 0.1 mg/dL
- TOTAL PROTEIN [1]: 6 G/DL
- URIC ACID [1]: 1.3 mg/dL
- ABSOLUTE BASOPHIL [2]: 0 CELLS/uL
- ABSOLUTE EOSINOPHIL [2]: 212 CELLS/uL
- ABSOLUTE LYMPHOCYTE [2]: 11289 CELLS/uL
- ABSOLUTE MONOCYTE [2]: 312.33 CELLS/uL
- ABSOLUTE SEGMENTED NEUTROPHIL [2]: 1786.67 CELLS/uL
- BASOPHIL [2]: 0%
- EOSINOPHIL [2]: 1.67%
- ERYTHROCYTE COUNT [2]: 5.13 x10E6/uL
- HEMATOCRIT [2]: 35.1%
- HEMOGLOBIN [2]: 13.93 G/DL
- LEUKOCYTE COUNT [2]: 13.6 x10E3/uL
- LYMPHOCYTE [2]: 83%
- MEAN CORPUSCULAR HEMOGLOBIN [2]: 27.23 pg
- MEAN CORPUSCULAR HEMOGLOBIN CONCENTRATION [2]: 39.73 G/DL
- MEAN CORPUSCULAR VOLUME [2]: 68.43 fL
- MONOCYTE [2]: 2.33%
- NEUTROPHIL [2]: 13%
- NUCLEATED RED BLOOD CELLS [2]: 0 /100WBC
- PLATELET COUNT [2]: 1111 x10E3/uL
- ALANINE AMINOTRANSFERASE [2]: 40.67 u/L
- ALBUMIN [2]: 4.37 G/DL
- ALKALINE PHOSPHATASE [2]: 464.33 u/L
- ASPARTATE AMINOTRANSFERASE [2]: 82.33 u/L
- BLOOD UREA NITROGEN [2]: 13.33 mg/dL
- CARBON DIOXIDE [2]: 25.33 mmol/L
- CHLORIDE [2]: 100 MEQ/L
- CHOLESTEROL [2]: 69.33 mg/dL
- CREATINE PHOSPHOKINASE [2]: 261.33 u/L
- CREATININE [2]: 0.18 mg/dL
- GLUCOSE [2]: 184.67 mg/dL
- LACTATE DEHYDROGENASE [2]: 180 u/L
- LIPASE [2]: 10.67 u/L
- PHOSPHORUS [2]: 11.87 mg/dL
- POTASSIUM [2]: 5.72 MEQ/L
- SODIUM [2]: 144 MEQ/L
- TOTAL BILIRUBIN [2]: 0.23 mg/dL
- TOTAL PROTEIN [2]: 5.97 G/DL
- URIC ACID [2]: 1.6 mg/dL
- ABSOLUTE BASOPHIL [3]: 0 CELLS/uL
- ABSOLUTE EOSINOPHIL [3]: 37 CELLS/uL
- ABSOLUTE LYMPHOCYTE [3]: 10260.33 CELLS/uL
- ABSOLUTE MONOCYTE [3]: 119.33 CELLS/uL
- ABSOLUTE SEGMENTED NEUTROPHIL [3]: 1383.33 CELLS/uL
- BASOPHIL [3]: 0%
- EOSINOPHIL [3]: 0.33%
- ERYTHROCYTE COUNT [3]: 5.63 x10E6/uL
- HEMATOCRIT [3]: 35.3%
- HEMOGLOBIN [3]: 14.17 G/DL
- LEUKOCYTE COUNT [3]: 11.8 x10E3/uL
- LYMPHOCYTE [3]: 87%
- MEAN CORPUSCULAR HEMOGLOBIN [3]: 25.2 pg
- MEAN CORPUSCULAR HEMOGLOBIN CONCENTRATION [3]: 40.17 G/DL
- MEAN CORPUSCULAR VOLUME [3]: 62.77 fL
- MONOCYTE [3]: 1%
- NEUTROPHIL [3]: 11.67%
- NUCLEATED RED BLOOD CELLS [3]: 0 /100WBC
- PLATELET COUNT [3]: 1110.33 x10E3/uL
- ALANINE AMINOTRANSFERASE [3]: 46.33 u/L
- ALBUMIN [3]: 4.17 G/DL
- ALKALINE PHOSPHATASE [3]: 346 u/L
- ASPARTATE AMINOTRANSFERASE [3]: 85 u/L
- BLOOD UREA NITROGEN [3]: 17 mg/dL
- CARBON DIOXIDE [3]: 32.33 mmol/L
- CHLORIDE [3]: 99.67 MEQ/L
- CHOLESTEROL [3]: 72.33 mg/dL
- CREATINE PHOSPHOKINASE [3]: 387 u/L
- CREATININE [3]: 0.22 mg/dL
- GLUCOSE [3]: 142.67 mg/dL
- LACTATE DEHYDROGENASE [3]: 421.33 u/L
- LIPASE [3]: 10.67 u/L
- PHOSPHORUS [3]: 12.3 mg/dL
- POTASSIUM [3]: 6.05 MEQ/L
- SODIUM [3]: 144.13 MEQ/L
- TOTAL BILIRUBIN [3]: 0.17 mg/dL
- TOTAL PROTEIN [3]: 6.1 G/DL
- URIC ACID [3]: 1.27 mg/dL

Reference: ChEMBL document CHEMBL3885881, “DrugMatrix”
